In patent US5245034A, “Compound having vessel smooth muscle relaxation activity” (Hidaka; Kiroyoshi, priority 1988, dated 1993):
Like-named read-outs stand apart in the source and are kept apart here.

How the values were obtained:
[1] = test system: superior mesenteric artery (contracted by potassium chloride); assay: Vessel Smooth Muscle Relaxation Action (V.R.); format: cell-based, rabbit; conditions: Oryctolagus cuniculus, read-out: V.R. (ED50)
From the text: The specimen was suspended by loading a strain in Krebs-Henseleit solution through which an oxygen gas containing 5% carbon dioxide was bubbled. The specimen was contracted by adding potassium chloride to maintain a predetermined strain. Thereafter, a test compound was cumulatively administrated.

washed platelets = assay: Platelet Agglutination Inhibition (P.A.), collagen-induced; format: cell-based, human (healthy person); conditions: Homo sapiens, read-out: P.A. (IC50)
Description: To this suspension was added one sixth volume of ACD solution, and the whole was further centrifuged at 1500×G for 5 minutes to prepare a platelet pellet. The platelet pellet was then suspended in a modified HEPES Tyrode solution to obtain about 3×10^5 /μl in washed platelet suspension.
To 270 μl of the washed platelet suspension was added 3 μl of a solution of a test compound dissolved in an appropriate medium in different concentration, and the mixture was pre-incubated at 37° C. for 2 minutes.
As a control, the above-mentioned procedure was carried out except that the test medium without a test compound was used, and the absorbance before addition of collagen and the maximum absorbance after addition of collagen were measured, and the difference between both absorbances was taken as 100% agglutination.
For test compound, the absorbance before an addition of collagen and the maximum absorbance after an addition of collagen were measured, and a percent of the inhibition was determined, compared with the control.

[2] = biological target: Calmodulin-Dependent Phosphodiesterase (Ca^2+ PDE); assay: Calmodulin-Dependent Phosphodiesterase Inhibition (Ca^2+ PDE); format: biochemical, rat; conditions: [^3 H]-cGMP, 30° C.
Description: Phosphodiesterase (Ca^2+ PDE)Ca^2+ PDE was partially purified from the brain of rat by DEAE-Sepharose column chromatography.
Calmodulin was purified from the calf brain using a calmodulin inhibitor W-7 affinity column.
A reaction mixture contained 20 μl of 500 mM Tris-HCl (pH 8.0), 20 μl of 50 mM MgCl2, 20 μl of 2 mM CaCl2 (or 10 mM EGTA), 20 μl of 1 mg/ml bovine serum albumin, PDE, […] of calmodulin, test sample and distilled water to make total volume 200 μl. To the mixture was added 20 μl of 4 μM [^3 H]-cGMP (2.5 μCi/ml), the mixture was incubated at 30° C. for 15 minutes, and then heated in boiling water for 3 to 5 minutes to terminate the reaction, and cooled in ice-water bath. 20 μg of 5'-nucleotidase (Snake venum) was added to the mixture, and the mixture was again incubated at 30° C. for 10 minutes. After addition of about 2 ml of water, the sample was applied to a cation exchange resin column (Biorad AG.AG50W-X4 to adsorbe the [^3 H]-guanosine and additionally about 2 ml of washing water for the sample was added to the column. The column was washed with about 20 ml of water, and the adsorbed [^3 H]-guanosine was eluted with 3 ml of 3N NH4 OH, and the elute was directly received by a vial. After an addition of 10 ml of an emulsified scintillation solution (ACS-II, AMERSHAM) the radio activity was measured by a scintillation counter LS7500 (Beckmann). The enzyme activity in the presence of calmodulin was taken as […], and a concentration of a test compound in μM which provides a 50% inhibition was expressed as IC50.

[3] = concentration relaxing KCl-contracted strain to 50%, cumulative administration
[4] = washed platelets, collagen, 37° C.

`O=C(OCc1ccccc1)N1CCN(C(=O)[C@H](Cc2ccc(O)cc2)NS(=O)(=O)c2cccc3cnccc23)CC1` [Example 29, 1-Benzyloxycarbonyl-4-[N-(5-Isoquinolinesulfonyl)Tyrosyl]Piperazine] gave an EC50 [1, 3] of 7.6 µM and an IC50 (washed platelets; [4]) of 73 µM.

`O=C(OCc1ccccc1)N1CCN(CC(Cc2ccc(O)cc2)NS(=O)(=O)c2cccc3cnccc23)CC1` (stereo not drawn) [Example 68, N-[2-(4-benzyloxycarbonylpiperazinyl)-1-(p-hydroxybenzyl)ethyl]-5-isoquinolinesulfonamide] was tested, and the EC50 [1, 3] was 3.3 ± 1.4 µM and the IC50 (washed platelets; [4]) was 6 µM.

Compound `CN(C(Cc1ccc(OS(=O)(=O)c2cccc3cnccc23)cc1)CN1CCN(c2ncccn2)CC1)S(=O)(=O)c1cccc2cnccc12` (stereo not drawn) [Example 41, N-{1-[p-(5-isoquinolinesulfonyloxy)benzyl]-2-[4-(2-pyrimidyl)piperazinyl]ethyl}-N-methyl-5-isoquinolinesulfonamide] has an EC50 [1, 3] of 1.8 µM and an IC50 (washed platelets; [4]) of 10 µM.

With `CN(Cc1ccccc1)C1CCN(CC(Cc2ccc(O)cc2)N(C)S(=O)(=O)c2cccc3cnccc23)CC1` (stereo not drawn) [Example 97, N-{2-[4-(N-Benzyl-N-Methylamino)Piperidino]-1-(P-Hydroxybenzyl)Ethyl}-N-Methyl-5-Isoquinolinesulfonamide] the IC50 (washed platelets; [4]) was 39 µM.

For `O=S(=O)(NCCNCC=Cc1ccc(C(F)(F)F)cc1)c1cccc2cnccc12` [Example 179, N-[2-(4-Trifluoromethylcinnamylamino)Ethyl]-5-Isoquinolinesulfonamide], the EC50 [1, 3] was 2.8 µM, the IC50 [2] was 7.8 µM and the IC50 (washed platelets; [4]) was 51 µM.

`CN(C(Cc1ccc(O)cc1)CN1CCN(c2ccc(F)cc2)CC1)S(=O)(=O)c1cccc2cnccc12` (stereo not drawn) [Example 50, N-{1-(p-hydroxybenzyl)-2-[4-(p-fluorophenyl)piperazinyl]ethyl}-N-methyl-5-isoquinolinesulfonamide] was tested, and the EC50 [1, 3] was 0.67 µM and the IC50 (washed platelets; [4]) was 70 µM.

Work on `O=S(=O)(NC(Cc1ccc(O)cc1)CN1CCN(c2ncccn2)CC1)c1cccc2cnccc12` (stereo not drawn) [Example 40, N-{1-(p-hydroxybenzyl)-2-[4-(2-pyrimidyl)piperazinyl]ethyl}-5-isoquinolinesulfonamide] yielded an IC50 (washed platelets; [4]) of 4.7 µM.

Compound `O=S(=O)(Nc1ccccc1NCC=Cc1cccnc1)c1cccc2cnccc12` [Example 145, N-{2-[3-(3-pyridyl)allylamino]phenyl}-5-isoquinolinesulfonamide] has an IC50 (washed platelets; [4]) of 12 µM.

Work on `CC(C=Cc1cccc(Cl)c1)NCCNS(=O)(=O)c1cccc2cnccc12` (stereo not drawn) [Example 157] yielded an EC50 [1, 3] of 3.2 µM, an IC50 [2] of 8.6 µM and an IC50 (washed platelets; [4]) of 36 µM.

Work on `O=S(=O)(NCCNCC=Cc1ccc(Br)cc1)c1cccc2cnccc12` [Example 176, N-[2-(4-Bromophenylcinnamylamino)ethyl]-5-Isoquinolinesulfonamide] yielded an EC50 [1] of 1.2 µM, an IC50 [2] of 8.5 µM and an IC50 (washed platelets) of 55 µM.

`CC(C=Cc1ccc([N+](=O)[O-])cc1)NCCNS(=O)(=O)c1cccc2cnccc12` (stereo not drawn) [Example 159] was tested, and the EC50 [1, 3] was 5.1 µM, the IC50 [2] was 92 µM and the IC50 (washed platelets; [4]) was 24 µM.

`CN(C(Cc1ccc(O)cc1)CN1CCCNCC1)S(=O)(=O)c1cccc2cnccc12` (stereo not drawn) [Example 114, N-[1-(p-hydroxy)benzyl-2-homopiperazinylethyl]-N-methyl-5-isoquinolinesulfonamide] showed an EC50 [1, 3] of 54 µM and an IC50 (washed platelets; [4]) of 100 µM.

`CN(C(Cc1ccc(OS(=O)(=O)c2cccc3cnccc23)cc1)CN1CCN(C(=O)c2ccccc2)CC1)S(=O)(=O)c1cccc2cnccc12` (stereo not drawn) [Example 74, N-{2-(4-Benzoylpiperazinyl)-1-[P-(5-Isoquinolinesulfonyloxy)Benzyl]Ethyl}-N-Methyl-5-Isoquinolinesulfonamide] showed an IC50 (washed platelets; [4]) of 2.8 µM.

With `CN(C(Cc1ccc(OS(=O)(=O)c2cccc3cnccc23)cc1)CN1CCN(S(=O)(=O)c2ccccc2)CC1)S(=O)(=O)c1cccc2cnccc12` (stereo not drawn) [Example 61, N-{2-[(4-Benzenesulfonyl)Piperazinyl]-1-[P-(5-Isoquinolinesulfonyloxy)Benzyl]Ethyl}-N-Methyl-5-Isoquinolinesulfonamide] the IC50 (washed platelets; [4]) was 10 µM.

`CC(C=Cc1ccc(Br)cc1)NCCNS(=O)(=O)c1cccc2cnccc12` (stereo not drawn) [Example 167] showed an EC50 [1, 3] of 1.2 µM and an IC50 (washed platelets; [4]) of 52 µM.

`CC(C=Cc1ccc(F)cc1F)NCCNS(=O)(=O)c1cccc2cnccc12` (stereo not drawn) [Example 155] was tested, and the EC50 [1, 3] was 4.1 µM and the IC50 (washed platelets; [4]) was 55 µM.

With `CN(C(Cc1ccc(O)cc1)CN1CCCN(C(=O)OCc2ccccc2)CC1)S(=O)(=O)c1cccc2cnccc12` (stereo not drawn) [Example 113] the EC50 [1, 3] was 0.88 µM, the IC50 [2] was 1.2 µM and the IC50 (washed platelets; [4]) was 20 µM.

In the case of `COc1ccc(N2CCN(CC(Cc3ccc(N4C(=O)c5ccccc5C4=O)cc3)N(C)S(=O)(=O)c3cccc4cnccc34)CC2)cc1` (stereo not drawn) [Example 126, N-{2-[4-(P-Methoxyphenyl)Piperazinyl]-1-(P-Phthalimidebenzyl)Ethyl}-N-Methyl-5-Isoquinolinesulfonamide], the IC50 (washed platelets; [4]) is reported as 10 µM.

Compound `O=S(=O)(NCCNCC=Cc1ccc(Cl)cc1)c1cccc2cnccc12` [Example 172, N-[2-(4-Chlorocinnamylamino)ethyl]-5-Isoquinolinesulfonamide] has an EC50 [1, 3] of 1 µM, an IC50 [2] of 9.4 µM and an IC50 (washed platelets; [4]) of 51 µM.

`CC(C=Cc1ccc(Cl)cc1Cl)NCCNS(=O)(=O)c1cccc2cnccc12` (stereo not drawn) [Example 156, N-[2-(2,4-Dichloro-α-Methylcinnamylamino)Ethyl]-5-Isoquinolinesulfonamide] showed an EC50 [1, 3] of 4.4 µM, an IC50 [2] of 19 µM and an IC50 (washed platelets; [4]) of 19 µM.

`CC(C)c1ccc(C=CCNCCNS(=O)(=O)c2cccc3cnccc23)cc1` [Example 177] gave an EC50 [1, 3] of 2.7 µM, an IC50 [2] of 24 µM and an IC50 (washed platelets; [4]) of 56 µM.

`CC(C=Cc1ccc(C(C)C)cc1)NCCNS(=O)(=O)c1cccc2cnccc12` (stereo not drawn) [Example 168] gave an EC50 [1, 3] of 3.6 µM and an IC50 (washed platelets; [4]) of 26 µM.

In the case of `Cc1ccc(C=CC(C)NCCNS(=O)(=O)c2cccc3cnccc23)cc1` (stereo not drawn) [Example 160], the EC50 [1, 3] is reported as 1.8 µM and the IC50 (washed platelets; [4]) is reported as 56 µM.

Compound `O=C(NCc1ccccc1)N1CCN(CC(Cc2ccc(O)cc2)NS(=O)(=O)c2cccc3cnccc23)CC1` (stereo not drawn) [Example 71, N-[2-(4-benzylaminocarbonylpiperazinyl)-1-(p-hydroxybenzyl)ethyl]-5-isoquinolinesulfonamide] has an EC50 [1, 3] of 14 µM and an IC50 (washed platelets; [4]) of 93 µM.

For `O=S(=O)(NCCNCC=CC=CC=Cc1ccc(C(F)(F)F)cc1)c1cccc2cnccc12` [Example 181], the EC50 [1, 3] was 8.4 µM, the IC50 [2] was 4.7 µM and the IC50 (washed platelets; [4]) was 38 µM.

With `CC(C=Cc1ccc(Cl)cc1)NCCNS(=O)(=O)c1cccc2cnccc12` (stereo not drawn) [Example 153] the EC50 [1, 3] was 1.5 µM and the IC50 (washed platelets; [4]) was 25 µM.

`O=C(OCc1ccccc1)N1CCCN(C(=O)[C@H](Cc2ccc(O)cc2)NS(=O)(=O)c2cccc3cnccc23)CC1` [Example 123, 1-Benzyloxycarbonyl-4-[N-(5-Isoquinolinesulfonyl)Tyrosyl]Homopiperazine] gave an EC50 [1, 3] of 4.8 µM and an IC50 (washed platelets; [4]) of 22 µM.

`CC(C=Cc1ccc(F)cc1)NCCNS(=O)(=O)c1cccc2cnccc12` (stereo not drawn) [Example 166, N-[2-(4-Fluoro-α-Methylcinnamylamino)Ethyl]-5-Isoquinolinesulfonamide] showed an EC50 [1, 3] of 1.4 µM and an IC50 (washed platelets; [4]) of 90 µM.

Work on `CC(C=Cc1ccccc1)NCCNS(=O)(=O)c1cccc2cnccc12` (stereo not drawn) [Example 154, N-[2-(α-Methylcinnamylamino)Ethyl]-5-Isoquinolinesulfonamide] yielded an IC50 (washed platelets; [4]) of 60 µM.
